The results in this text go back to patent publication US20240033278A9, “CONJUGATE GROUP AND CONJUGATE” (MEDSHINE DISCOVERY INC., priority 2020, published 2024).

The experiment deals with T1, human-derived anti-asialoglycoprotein receptors (ASGPR) (Homo sapiens, UniProt P07306).
T1 construct: purchased Sino Biological 10773-H07H
T1 sequence (P07306 1-291): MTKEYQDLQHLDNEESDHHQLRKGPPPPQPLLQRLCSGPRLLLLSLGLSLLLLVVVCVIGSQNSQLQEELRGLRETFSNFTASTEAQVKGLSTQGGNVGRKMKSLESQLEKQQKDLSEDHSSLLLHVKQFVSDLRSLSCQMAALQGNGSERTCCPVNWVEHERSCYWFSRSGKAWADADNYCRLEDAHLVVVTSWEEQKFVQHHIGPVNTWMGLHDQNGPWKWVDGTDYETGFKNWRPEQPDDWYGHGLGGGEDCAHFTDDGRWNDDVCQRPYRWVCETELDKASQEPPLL
Briefly: Binding affinity of the compound to human-derived ASGPR by surface plasmon resonance (SPR). The protocol: Assay Example 1. Test of the Binding Affinity of the Compound to Human-Derived […]
The binding affinity of the compound to human-derived […] (ASGPR) was tested by surface plasmon resonance (SPR) technique, and the kinetic KD value of the compound was used as an indicator to evaluate the binding affinity of the compound to ASGPR, thereby reflecting the ability of the compound to specifically target hepatocytes for delivery of nucleic acid molecules.
Asialoglycoprotein Receptor Protein, Mouse, Recombinant (His Tag), Sino biological-50083-M07H-50 μg; Asialoglycoprotein Receptor Protein, Human, Recombinant (His Tag), Sino biological-10773-H07H-50 μg
3.1 The two proteins were respectively dissolved in 1×PBS to obtain a solution of 0.25 mg/mL, and the compound to be tested was dissolved in DMSO. The running buffer (10 mM HEPES, 150 mM NaCl, 0.05% Tween 20, 50 mM CaCl2, 50 μM EDTA) was prepared and filtered through a 0.22 μm membrane.
3.2 The NiHC 1500M Chip was docked into a biacore, and the system was switched to a running buffer.
3.3 Protein labeling: The chip was first treated with 350 mM EDTA at 30 μl/min for 5 min, rinsed with running buffer for 2 min, and then bound with 40 mM NiCl2 at 30 μl/min for 2 min. A protein diluted to 5 μg/mL with running buffer was then labeled on the chip at a flow rate of 10 μl/min for a final labeling amount of 1500-2000 RU.
3.4 The instrument system was switched to a running buffer containing 2% DMSO.
3.5 The compound with a starting concentration of 2 μM was serially diluted 2-fold with a running buffer containing 2% DMSO to obtain 9 concentrations. The final concentration of DMSO was 2%.
3.6 Testing: For each cycle, the compound was bound for 60 s and dissociated for 180 s at a flow rate of 50 μl/min. The compound was tested in order of concentration from low to high. Before the gradient testing of the compound, 4 cycles of blank (running buffer with 2% DMSO) were introduced, and solvent correction was performed with 1.5%-3.5% DMSO (6 concentrations).
The data were analyzed with Biacore Insight Evaluation Software, kinetics was analyzed with a 1:1 model, and affinity was analyzed with a steady state affinity model.

For the compound `COc1ccc(C(OC[C@@H]2C[C@@H](O)CN2C(=O)CCCCCCCCCCOCC(COCCC(=O)NCCCNC(=O)CCCCOC2OC(CO)C(O)C(O)C2NC(C)=O)(COCCC(=O)NCCCNC(=O)CCCCOC2OC(CO)C(O)C(O)C2NC(C)=O)NC(=O)CCC(=O)NCCCNC(=O)CCCCOC2OC(CO)C(O)C(O)C2NC(C)=O)(c2ccccc2)c2ccc(OC)cc2)cc1` (stereo partly drawn) [Compound D-01-M], the “binding affinity in the SPR assay (in words)” value (SPR) is recorded as “good binding affinity”. Besides, the Kd (SPR (Biacore 8k), kinetic KD, 1:1 model, His-tagged recombinant protein on NiHC 1500M chip) was 0.0156 µM. Further, the kon (SPR, association rate constant, 1:1 model, read-out: Ka) came to 1.08e+06 M⁻¹ s⁻¹. Under “SPR, dissociation rate constant, 1:1 model”, this compound came in with an off-rate constant (koff) of 0.0168 s⁻¹.
